Test results: patent US7348427B2, “Antipathogenic benzamide compounds” (Genesoft Pharmaceuticals, Inc., priority 2001, dated 2008)
In brackets after ≈: the same amount, converted by molar mass.

Assays:
[1] = system: Enterococcus faecium (ATCC 51559, a vancomycin resistant strain (VRE)); assay: MIC, NCCLS broth microdilution assay; type: cell-based; settings: D = E. faecium ATCC 51559
Procedure, shortened: (§1)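 Activity is measured as MIC in microtiter broth microdilution under NCCLS M7-A4, M11-A4 and M27-T guidance, with the yeast tested by the method in Murray's Manual of Clinical Microbiology.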

[2] = system: Staphylococcus aureus (ATCC 27660, a methicillin resistant strain (MRSA)); assay: MIC, NCCLS broth microdilution assay; type: cell-based; settings: F = S. aureus ATCC 27660; for MIC: Staphylococcus aureus, read-out: Minimum Inhibitory Concentration (MIC)
Procedure, shortened: as §1

[3] = system: Bacillus cereus (ATCC 11778); assay: MIC, NCCLS broth microdilution assay; type: cell-based; settings: A = B. cereus ATCC 11778; for MIC: Bacillus cereus, ATCC11778, read-out: Minimum Inhibitory Concentration (MIC)
Procedure, shortened: as §1

[4] = system: Staphylococcus epidermidis (ATCC 12228); assay: MIC, NCCLS broth microdilution assay; type: cell-based; settings: G = S. epidermidis ATCC 12228
Procedure, shortened: as §1

[5] = system: Candida albicans (ATCC 38247); assay: Antifungal MIC assay; type: cell-based; settings: B = C. albicans ATCC 38247; for MIC: Candida albicans, ATCC38247, read-out: Minimum Inhibitory Concentration (MIC)
Procedure, shortened: as §1

[6] = system: E. faecalis ATCC 29212; assay: MIC, NCCLS broth microdilution assay; type: cell-based, Enterococcus faecalis; settings: C = E. faecalis ATCC 29212; for MIC: Enterococcus faecalis, ATCC29212, read-out: Minimum Inhibitory Concentration (MIC)
Procedure, shortened: (§2)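 MICs were determined by NCCLS broth microdilution following documents M7-A4 and M11-A4 (1997).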

[7] = system: Streptococcus pneumoniae (ATCC 51422, a penicillin resistant strain (PRSP)); assay: MIC, NCCLS broth microdilution assay; type: cell-based; settings: I = S. pneumoniae ATCC 51422
Procedure, shortened: as §1

[8] = system: Staphylococcus aureus (ATCC 13709, a methicillin sensitive strain (MSSA)); assay: MIC, NCCLS broth microdilution assay; type: cell-based; settings: E = S. aureus ATCC 13709; for MIC: Staphylococcus aureus, read-out: Minimum Inhibitory Concentration (MIC)
Procedure, shortened: as §1

[9] = system: S. pneumoniae ATCC 49619; assay: MIC, NCCLS broth microdilution assay; type: cell-based, Streptococcus pneumoniae; settings: H = S. pneumoniae ATCC 49619; for MIC: Streptococcus pneumoniae, ATCC49619, read-out: Minimum Inhibitory Concentration (MIC)
Procedure, shortened: as §2

MIC [2] [µg/mL] | MIC [3] [µg/mL] | MIC [8] [µg/mL] | MIC [5] [µg/mL] | MIC [6] [µg/mL] | MIC [9] [µg/mL] | Compound | Minimum Inhibitory Concentration (MIC) [1] | Minimum Inhibitory Concentration (MIC) [2] | Minimum Inhibitory Concentration (MIC) [3] | Minimum Inhibitory Concentration (MIC) [4] | Minimum Inhibitory Concentration (MIC) [5] | Minimum Inhibitory Concentration (MIC) [6] | Minimum Inhibitory Concentration (MIC) [7] | Minimum Inhibitory Concentration (MIC) [8] | Minimum Inhibitory Concentration (MIC) [9]
 |  |  |  |  |  | Cn1cc(NC(=O)c2cc(NC(=O)c3cc(NC(=O)c4cc(NC(=O)c5ccc(F)cc5F)c[nH]4)cn3C)cn2C)cc1C(=O)NCCN1CCOCC1 [Compound A-2] | + (+ = 12 ≦ MIC ≦ 32) | + (+ = 12 ≦ MIC ≦ 32) | +++ (+++ = MIC ≦ 4) | + (+ = 12 ≦ MIC ≦ 32) | >32 µg/mL | ++ (++ = 4 < MIC < 12) |  |  | 
 |  |  |  |  |  | Cn1cc(NC(=O)c2cc(NC(=O)c3cc(NC(=O)c4ccc(F)cc4F)c[nH]3)cn2C)cc1C(=O)NCCc1ccncc1 [Compound A-7] | +++ (+++ = MIC ≦ 4) | +++ (+++ = MIC ≦ 4) | +++ (+++ = MIC ≦ 4) | +++ (+++ = MIC ≦ 4) | >32 µg/mL | +++ (+++ = MIC ≦ 4) | +++ (+++ = MIC ≦ 4) | +++ (+++ = MIC ≦ 4) | +++ (+++ = MIC ≦ 4)
 |  |  |  |  |  | Cn1cc(NC(=O)c2cc(NC(=O)c3cc(NC(=O)c4ccc(F)cc4F)c[nH]3)cn2C)cc1C(=O)NCCN1CCC(F)(F)CC1 [Compound A-12] | +++ (+++ = MIC ≦ 4) | + (+ = 12 ≦ MIC ≦ 32) | +++ (+++ = MIC ≦ 4) | +++ (+++ = MIC ≦ 4) | >32 µg/mL | +++ (+++ = MIC ≦ 4) | +++ (+++ = MIC ≦ 4) | +++ (+++ = MIC ≦ 4) | +++ (+++ = MIC ≦ 4)
 |  |  |  |  |  | CN(C)CCCNC(=O)c1cc(NC(=O)c2cc(NC(=O)c3cc(NC(=O)c4ccc(Cl)cc4F)c[nH]3)cn2C)cn1C [Compound A-13] | + (+ = 12 ≦ MIC ≦ 32) | +++ (+++ = MIC ≦ 4) | +++ (+++ = MIC ≦ 4) | +++ (+++ = MIC ≦ 4) | +++ (+++ = MIC ≦ 4) | ++ (++ = 4 < MIC < 12) | +++ (+++ = MIC ≦ 4) | +++ (+++ = MIC ≦ 4) | +++ (+++ = MIC ≦ 4)
 |  |  |  |  |  | CCN(CC)CCNC(=O)c1cc(NC(=O)c2cc(NC(=O)c3cc(NC(=O)c4ccc(Cl)cc4F)c[nH]3)cn2C)cn1C [Compound A-16] | +++ (+++ = MIC ≦ 4) | +++ (+++ = MIC ≦ 4) | +++ (+++ = MIC ≦ 4) | +++ (+++ = MIC ≦ 4) | +++ (+++ = MIC ≦ 4) | +++ (+++ = MIC ≦ 4) | +++ (+++ = MIC ≦ 4) | +++ (+++ = MIC ≦ 4) | +++ (+++ = MIC ≦ 4)
 |  |  |  |  |  | Cn1cc(NC(=O)c2cc(NC(=O)c3ccc(Cl)cc3F)c[nH]2)cc1C(=O)NCCN1CCCCC1 [Compound A-18] | +++ (+++ = MIC ≦ 4) | +++ (+++ = MIC ≦ 4) | +++ (+++ = MIC ≦ 4) | +++ (+++ = MIC ≦ 4) | >32 µg/mL | +++ (+++ = MIC ≦ 4) | +++ (+++ = MIC ≦ 4) | +++ (+++ = MIC ≦ 4) | +++ (+++ = MIC ≦ 4)
 |  |  |  |  |  | Cn1cc(NC(=O)c2cc(NC(=O)c3ccc(Cl)cc3F)c[nH]2)cc1C(=O)NCCN1CCSCC1 [Compound A-21] | +++ (+++ = MIC ≦ 4) | +++ (+++ = MIC ≦ 4) | +++ (+++ = MIC ≦ 4) | +++ (+++ = MIC ≦ 4) | >32 µg/mL | +++ (+++ = MIC ≦ 4) | +++ (+++ = MIC ≦ 4) | +++ (+++ = MIC ≦ 4) | +++ (+++ = MIC ≦ 4)
 |  |  |  |  |  | Cn1cc(NC(=O)c2cc(NC(=O)c3ccc(F)cc3)cn2C)cc1C(=O)NCCN1CCOCC1 [Compound B-36] | + (+ = 12 ≦ MIC ≦ 32) | >32 µg/mL | >32 µg/mL |  | >32 µg/mL | >32 µg/mL | >32 µg/mL | >32 µg/mL | + (+ = 12 ≦ MIC ≦ 32)
 |  |  |  |  |  | Cc1cc(NC(=O)c2cc(NC(=O)c3cc(NC(=O)c4ccc(F)cc4F)c[nH]3)cn2CCN2CCOCC2)sn1 [Compound D-4] |  | >32 µg/mL | >32 µg/mL |  | >32 µg/mL | >32 µg/mL | +++ (+++ = MIC ≦ 4) | >32 µg/mL | >32 µg/mL
 |  |  |  |  |  | CN(C)CCCn1cc(NC(=O)c2cc(NC(=O)c3ccc(Cl)cc3F)cn2C)cc1C(=O)Nc1cc(C(=O)NCCN2CCOCC2)n(C)c1 [Compound D-25] |  | +++ (+++ = MIC ≦ 4) | +++ (+++ = MIC ≦ 4) |  | + (+ = 12 ≦ MIC ≦ 32) | +++ (+++ = MIC ≦ 4) |  | +++ (+++ = MIC ≦ 4) | +++ (+++ = MIC ≦ 4)
 |  |  |  |  |  | CN(C)CCCn1cc(NC(=O)c2cc(NC(=O)c3ccc(Cl)cc3F)c[nH]2)cc1C(=O)Nc1cc(C(=O)NCCN2CCOCC2)n(C)c1 [Compound D-26] |  | +++ (+++ = MIC ≦ 4) | +++ (+++ = MIC ≦ 4) |  | + (+ = 12 ≦ MIC ≦ 32) | +++ (+++ = MIC ≦ 4) |  | +++ (+++ = MIC ≦ 4) | +++ (+++ = MIC ≦ 4)
 |  |  |  |  |  | Cn1cc(NC(=O)c2cc(NC(=O)c3cc(NC(=O)c4ccc(Cl)cc4)cn3C)cn2CCN2CCOCC2)cc1C(=O)NCCN1CCOCC1 [Compound D-27] |  | + (+ = 12 ≦ MIC ≦ 32) | ++ (++ = 4 < MIC < 12) |  | >32 µg/mL | +++ (+++ = MIC ≦ 4) |  | + (+ = 12 ≦ MIC ≦ 32) | +++ (+++ = MIC ≦ 4)
 |  |  |  |  |  | Cc1cc(NC(=O)c2cc(NC(=O)c3cc(NC(=O)c4ccc(Cl)cc4)cn3C)cn2CCN2CCOCC2)sn1 [Compound D-28] |  | + (+ = 12 ≦ MIC ≦ 32) | + (+ = 12 ≦ MIC ≦ 32) |  | >32 µg/mL | + (+ = 12 ≦ MIC ≦ 32) |  | + (+ = 12 ≦ MIC ≦ 32) | +++ (+++ = MIC ≦ 4)
 |  |  |  |  |  | Cn1cc(NC(=O)c2cc(NC(=O)c3ccc(F)cc3F)no2)cc1C(=O)NCCN1CCOCC1 [Compound E-3] |  | + (+ = 12 ≦ MIC ≦ 32) | + (+ = 12 ≦ MIC ≦ 32) |  | >32 µg/mL | + (+ = 12 ≦ MIC ≦ 32) |  | >32 µg/mL | + (+ = 12 ≦ MIC ≦ 32)
≤ 4 | 12 to 32 (≈ 19.2 to 51.2 µM) | ≤ 4 | > 32 | ≤ 4 | ≤ 4 | Cn1cc(NC(=O)c2cc(NC(=O)c3cc(NC(=O)c4ccc(F)cc4F)no3)cn2C)cc1C(=O)NCCN1CCOCC1 [Compound E-8] |  |  |  |  |  |  |  |  | 
> 32 | > 32 | > 32 | > 32 | 12 to 32 (≈ 18.7 to 49.9 µM) | 12 to 32 (≈ 18.7 to 49.9 µM) | Cn1cc(NC(=O)c2cc(NC(=O)c3cnc(NC(=O)c4ccc(F)cc4F)s3)cn2C)cc1C(=O)NCCN1CCOCC1 [Compound E-9] |  |  |  |  |  |  |  |  | 
